Read-outs that look alike come from different tables or passages of the source.
What was measured:
PCC7942_orf1594 protein = target: T1, PCC7942_orf1594 protein (Synechococcus elongatus, UniProt Q54765); experiment: acyl-ACP or acyl-CoA reductase enzyme assay (aldehyde formed, GC/MS); format: biochemical, Synechococcus elongatus PCC7942
T1 construct: His-tag (C); made in house; host or cells: E. coli BL21 (DE3)
T1 sequence (Q54765 1-341): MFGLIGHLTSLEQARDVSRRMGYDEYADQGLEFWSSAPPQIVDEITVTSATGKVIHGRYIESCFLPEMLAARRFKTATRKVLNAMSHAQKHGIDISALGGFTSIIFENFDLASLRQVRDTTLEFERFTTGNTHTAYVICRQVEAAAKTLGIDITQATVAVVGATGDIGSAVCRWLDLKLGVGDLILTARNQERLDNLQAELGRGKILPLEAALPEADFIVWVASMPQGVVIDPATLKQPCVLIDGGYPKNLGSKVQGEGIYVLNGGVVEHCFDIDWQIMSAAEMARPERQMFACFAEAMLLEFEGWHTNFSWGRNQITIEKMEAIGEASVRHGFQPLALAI
Description: The genomic DNA encoding S. elongatus […] orf1594 (SEQ ID NO:65) was cloned into the NcoI and XhoI sites of vector pET-28b under the control of the T7 promoter. The resulting PCC7942_orf1594 protein contained a C-terminal His-tag. An E. coli BL21 strain (DE3) (Invitrogen) was transformed with the plasmid and PCC7942_orf1594 protein was expressed and purified as described in Example 22. The protein solution was stored in the following buffer: 50 mM sodium phosphate, pH 7.5, 100 mM NaCl, 1 mM THP, 10% glycerol. Protein concentration was determined using the Bradford assay (Biorad). 2 mg/mL of PCC7942_orf1594 protein was obtained.
To test PCC7942_orf1594 protein for acyl-ACP or acyl-CoA reductase activity, the following enzyme assays were set-up. 100 μL reactions were set-up in 50 mM Tris-HCl buffer at pH 7.5 with the following components at their respective final concentrations: 10 μM of purified PCC7942_orf1594 protein, 0.01-1 mM acyl-CoA or acyl-ACP, 2 mM MgCl2, 0.2-2 mM NADPH. The reactions were incubated for 1 h at 37° C. and where stopped by adding 100 μL ethyl acetate (containing 5 mg/l 1-octadecene as internal standard). Samples were vortexed for 15 min and centrifuged at max speed for 3 min for phase separation. 80 μL of the top layer were transferred into GC glass vials and analyzed by GC/MS as described in Example 26. The amount of aldehyde formed was calculated based on the internal standard.

[1] = tested on: Prochlorococcus marinus CCMP1986 PMM0532 (NP-892650; putative decarbonylase)
[2] = in the presence of 2 mM NADPH, 10 μM purified enzyme, 2 mM MgCl2, pH 7.5, 1 h at 37° C., read-out: Km for the reduction of the acyl substrate

## NC(=O)C1=CN([C@@H]2O[C@H](COP(=O)(O)OP(=O)(O)OC[C@H]3O[C@@H](n4cnc5c(N)ncnc54)[C@H](OP(=O)(O)O)[C@@H]3O)[C@@H](O)[C@H]2O)C=CC1 [NADPH, reference compound]
PCC7942_orf1594 protein; in the presence of 0.5 mM octadecanoyl-CoA, read-out: Km value for NADPH
  Km: 400 ± 80 µM

## CCCCCCCCCCCCCCCCCC(=O)SCCNC(=O)CCNC(=O)[C@H](O)C(C)(C)COP(=O)(O)OP(=O)(O)OC[C@H]1O[C@@H](n2cnc3c(N)ncnc32)[C@H](O)[C@@H]1OP(=O)(O)O [octadecanoyl-CoA]
PCC7942_orf1594 protein; [2]
  Km: 45 ± 20 µM

## Prochlorococcus marinus CCMP1986 PMM0533 (NP-892651; putative aldehyde-generating enzyme)
[1]
  hydrocarbon and fatty alcohol production by cotransformed E. coli MG1655 (GC/MS): E. coli cells transformed with only the P. marinus CCMP1986 PMM0533-bearing vector did not produce any fatty aldehydes or fatty alcohols. However, E. coli cells cotransformed with PMM0533 and PMM0532-bearing vectors produced hexadecanol, pentadecane and heptadecene

## octadecenoyl-ACP
PCC7942_orf1594 protein; [2]
  Km: 7.8 ± 2 µM

## octadecenoyl-CoA
PCC7942_orf1594 protein; [2]
  Km: 82 ± 22 µM

B1: Synechococcus elongatus PCC7942 YP-400611 (Synpcc7942-1594) acyl-ACP reductase, purified with C-terminal His-tag (protein)
chain: T1 sequence (Q54765 1-341)
octadecenoyl-ACP
  Km for the reduction of octadecenoyl-ACP in the presence of 2 mM NADPH (in vitro reductase assay, GC/MS): 7.8 ± 2 µM

Reference: patent publication US20120157717A1, “METHODS AND COMPOSITIONS FOR PRODUCING LINEAR ALKYL BENZENES” (LS9, INC., priority 2010, published 2012)
